Laboratory results: paper PMC5469451, “Identification of compounds that suppress Toxoplasma gondii tachyzoites and bradyzoites” (PLoS ONE, 2017)
pIC50: −log10 of the molar value. Where two headings read alike, the source gives them in different places.

Experiments:
[1] = tested on: PLK/DLUC_1C9 tachyzoites in Vero cells; assay: Primary screening: T. gondii growth assay, Renilla luciferase; format: cell-based, Toxoplasma gondii; details: Toxoplasma gondii; 10 μM, 48 h, PLK/DLUC_1C9 in Vero cells; DMSO = 0%, 10 μM pyrimethamine = 100%; read-out: Parasite Inhibition (%)
Experimental: In the primary screening, purified PLK/DLULC_1C9 tachyzoites were incubated with Vero cells at a multiplicity of infection (MOI) of 0.5. After a 2-h incubation, the infected host cells were trypsinized to obtain a cell suspension and then these suspended infected cells were inoculated into 96-well optical bottom plates containing the compound library. Each well was inoculated with 2500 cells in 25 μL of culture medium. […] Following cell inoculation, each well therefore contained 0.5% DMSO and 10 μM compound. After 48 h of culture, Renilla luciferase activity was measured by using Renilla-Glo (Promega, WI, USA) following the manufacturer’s instructions. […] The Z’-value for each plate was calculated from the Renilla luciferase activity in the negative and positive control wells.

[2] = tested on: RH-2F tachyzoites (type I strain) in HFF cells; assay: Confirmatory screening: RH-2F β-galactosidase growth assay in HFF cells; format: cell-based, Toxoplasma gondii; details: for pIC50: RH-2F in HFF cells, β-galactosidase assay, read-out: IC50 for parasite growth (95% CI)
Experimental: In the confirmatory screening, we utilize an RH strain β-galactosidase reporter parasite termed RH-2F (a type I strain). Briefly, RH-2F parasites were purified from freshly lysed infected host cells and used to infect confluent HFF cells cultured in 96-well plates. Five hundred parasites were added to each well, along with each test compound and 50 μL of culture medium. Plates were then incubated for 10 min at room temperature followed by an incubation at 37°C for 48 h in a CO2 incubator.
(§1) To measure the effects of tanshinone IIA and hydroxyzine on intracellular parasite growth, parasites were allowed to invade for 2 h, uninvaded parasites were washed away, and medium with compounds was added. After 48 h, the plates were frozen at -80°C. Plates were then thawed just prior to the measurement of beta-galactosidase activity. Beta-Glo (Promega) was used to measure β-galactosidase activity following the manufacturer’s instructions.

[3] = tested on: PLK/DLUC_1C9 parasites in HFF cells; assay: Bradyzoite differentiation assay, relative BAG1 promoter activity (Dual-Glo); format: cell-based, Toxoplasma gondii; details: 1 μM hydroxyzine, 2.5 μM tanshinone IIA; added 24 h after infection, 48 h treatment
Experimental: To measure bradyzoite induction activities of tanshinone IIA and hydroxyzine, PLK/DLUC_1C9 parasites were purified and then inoculated at a concentration of 2.0 x 10^4 parasites/well into 12-well plates containing confluent monolayers of HFF cells. Cells were incubated for 24 h after infection, then compounds were added, and the cells were incubated for 48 h. After incubation, the cells in each well were lysed using 200 μL of Passive Lysis Buffer (Promega) and the lysates were stored at -80°C. For the luciferase assay, 25 μL of lysate was used and the Renilla and firefly luciferase activities were measured by using Dual-Glo (Promega) according to the manufacturer’s instruction.

[4] = tested on: PLK/DLUC_1C9 in vitro-induced bradyzoites in HFF cells; assay: Effect on in vitro-induced bradyzoites (Dual-Glo firefly luciferase, BAG1 promoter); format: cell-based, Toxoplasma gondii; details: 3 days bradyzoite induction, then 10, 5, 2.5, 1 μM for 48 h; relative to DMSO
Experimental: To measure the effect of tanshinone IIA and hydroxyzine on in vitro-induced bradyzoites, we used PLK/DLUC_ 1C9 parasites and the Dual-Glo luciferase assay. Briefly, HFF cells in 96-well plates were infected with 1 x 10^4 parasites/well and incubated for 3 days with ambient CO2 condition in DMEM containing 25 mM HEPES pH 8.1 and 1% FBS to induce bradyzoites. Induced bradyzoites were treated with 10, 5, 2.5, and 1 μM compounds under bradyzoite-inducing conditions. After 48 h, luciferase activities were measured by using the Dual-Glo assay system (Promega) and normalized by host cell number.

HFF cells [5] = assay: Host cell viability in bradyzoite differentiation condition; format: cell-based, human
Experimental: To evaluate the host cell viability in bradyzoite differentiation condition, HFF cells were incubated for 48 h in DMEM containing 25 mM HEPES pH 8.1 and 1% FBS and measured the viability as described above.

[6] = tested on: PruΔku80Δhxgprt in HFF cells; assay: Immunofluorescence-based assay on spontaneously induced bradyzoites; format: cell-based, Toxoplasma gondii; details: 10, 2, 0.4, 0.08 μM, 48 h; for Bradyzoite differentiation (GFP-positive PV rate): compared with DMSO
Experimental: PruΔku80Δhxgprt, which expresses GFP under the control of a bradyzoite-specific gene LDH2 promoter, [13] was used. HFF host cells were seeded to a 96-well glass bottom plate (MGB096-1-2-LG-L, Brooks Automation, MA, USA) and cultured until confluent. Parasites were freshly lysed by passing them through 27 G needles and were purified by passing them through a 5-μm-pore filter. Five thousand parasites in 100 μL of culture medium were added and mixed with an equal volume of compound-containing medium to give final drug concentrations of 10, 2, 0.4, and 0.08 μM in 0.2% DMSO. After incubation at room temperature for 10 min, the infected host cells were incubated for 48 h at 37°C in a 5% CO2 incubator. After incubation, the cells were fixed with 4% paraformaldehyde in PBS for 20 min, quenched, and permeabilized with 0.2 M glycine and 0.2% TritonX-100 in PBS for 20 min, and then blocked with 3% BSA and 0.1% Tween 20 in PBS (blocking buffer); each procedure was performed at room temperature and was followed by washes with PBS three times. All parasites were stained with an anti-Toxoplasma mouse antibody (antisera produced in ME49-infected mice), and bradyzoites were detected with an anti-GFP rabbit monoclonal antibody (Life Technologies). Secondary antibodies for mouse (Alexa633 conjugated) and rabbit (Alexa488 conjugated) and DAPI were used to develop the fluorescent signal. Stained cells on 96-well plates were analyzed with a CompuCyte iCys Research Imaging Cytometer (Beckman Coulter, IN, USA).

HFF cells [7] = assay: Host cell cytotoxicity assay (Cell-Titer Glo), HFF cells; format: cell-based, human; details: 25 μM, 48 h, HFF cells, compared with DMSO
Experimental: (§2) Vero cells and HFF cells were both used as host cells because both cell types were used for the parasite screening. After incubation for 48 h in DMEM supplemented with 5% FBS, L-glutamine, penicillin, and streptomycin, cell viabilities were measured by using a Cell-Titer Glo kit (Promega) following the manufacturer’s instructions. Control wells were treated with DMSO alone in culture medium to calculate the 100% viability for each cell type.

[8] = as above; format: cell-based, human; details: human, 2.5 μM, 48 h, HFF cells, read-out: Host cell viability (%)
Experimental: as §2

[9] = tested on: RH-2F intracellular parasites in HFF cells; assay: Intracellular parasite growth after invasion (β-galactosidase); format: cell-based, Toxoplasma gondii; details: uninvaded parasites washed away, 48 h; 1.0 μM hydroxyzine, 2.5 μM tanshinone IIA, 25 mg/ml DS10
Experimental: as §1

[10] = Host cell cytotoxicity assay (Cell-Titer Glo), Vero cells; format: cell-based; details: African green monkey; 10 μM, 48 h, Vero cells; DMSO = 100%; read-out: Host Viability (%)
Experimental: as §2, with “Host cells were treated with compounds at the same concentration used for screening (i.e., 0.5% DMSO and 10 μM compound). Vero” for “Vero”

[11] = 2.5 μM, 48 h, RH-2F in HFF, compared with 10 μM pyrimethamine

SMILES | inhibition at 10 µM [1] | Parasite inhibition (%) [2, 11] | inhibition at 2.5 µM ([2]; Toxoplasma gondii, HFF, 48 h, 2.5 μM, 48 h, RH-2F in HFF, compared with 10 μM pyrimethamine, read-out: Parasite inhibition (%)) | inhibition at 25 µM ([2]; Toxoplasma gondii, HFF, 48 h, 48 h, RH-2F in HFF, compared with 10 μM pyrimethamine, read-out: Parasite inhibition (%)) | pIC50 ([2]; Toxoplasma gondii) | Relative BAG1 promoter activity (bradyzoite ratio) compared with 5 μM pyrimethamine treatment [3] | Bradyzoite number (firefly luciferase under BAG1 promoter, normalized by host cell number) [4] | Host cell viability under the bradyzoite-inducing condition (HFF cells [5]; HFF, pH 8.1, 1% FBS, 48 h) | Parasite growth (total parasite vacuole size) [6] | Bradyzoite differentiation (GFP-positive PV rate) [6] | Host cell viability (%) (HFF cells [7]) | viability at 2.5 µM [8] | Parasite growth when compound added after 2 h invasion window [9] | viability at 10 µM [10] | inhibition at 25 µM ([2]; Toxoplasma gondii, 48 h, RH-2F in HFF, compared with 10 μM pyrimethamine, read-out: Parasite inhibition (%)) | Host cell viability under the bradyzoite-inducing condition (HFF cells [5]; pH 8.1) | Host cell viability (%) (HFF cells [7]; listed as hydroxyzine) | viability at 48 h, 2.5 µM [8] | viability at 48 h, 10 µM [10]
Cc1coc2c1C(=O)C(=O)c1c-2ccc2c1CCCC2(C)C [Tanshinone IIA] | 91% | 55% | > 50% | 112% | 5.60 | 4.7% | reduced the bradyzoite number | slightly reduced the host cell number | reduced parasite growth in a concentration-dependent manner | did not induce bradyzoite differentiation even at high concentrations | 75% | 99% | reduced parasite growth in a dose dependent manner | 83% |  |  |  |  | 
CCc1nc(N)nc(N)c1-c1ccc(Cl)cc1 [Pyrimethamine] |  |  |  |  |  |  | cannot reduce bradyzoite numbers |  | reduced parasite growth in a concentration-dependent manner | induced bradyzoite differentiation |  |  |  |  |  |  |  |  | 
OCCOCCN1CCN(C(c2ccccc2)c2ccc(Cl)cc2)CC1 (stereo not shown) [Hydroxyzine] | 97% | 100% |  |  | 6.00 | 0.4% | reduced the bradyzoite number |  | reduced parasite growth in a concentration-dependent manner | did not induce bradyzoite differentiation even at high concentrations | 100% |  | reduced parasite growth in a dose dependent manner |  | 107% | did not affect the host cell viability | no effect on host cell viability | 102% | 101%
